Assay results published in ChEMBL document CHEMBL3826881, “Evaluation of bisbenzamidines as inhibitors for matriptase-2” (Bioorg Med Chem Lett, 2016).
pKi: −log10 of the molar value.

Target: T1, Suppressor of tumorigenicity 14 protein (Homo sapiens, UniProt Q9Y5Y6)
T1 sequence (Q9Y5Y6 whole entry): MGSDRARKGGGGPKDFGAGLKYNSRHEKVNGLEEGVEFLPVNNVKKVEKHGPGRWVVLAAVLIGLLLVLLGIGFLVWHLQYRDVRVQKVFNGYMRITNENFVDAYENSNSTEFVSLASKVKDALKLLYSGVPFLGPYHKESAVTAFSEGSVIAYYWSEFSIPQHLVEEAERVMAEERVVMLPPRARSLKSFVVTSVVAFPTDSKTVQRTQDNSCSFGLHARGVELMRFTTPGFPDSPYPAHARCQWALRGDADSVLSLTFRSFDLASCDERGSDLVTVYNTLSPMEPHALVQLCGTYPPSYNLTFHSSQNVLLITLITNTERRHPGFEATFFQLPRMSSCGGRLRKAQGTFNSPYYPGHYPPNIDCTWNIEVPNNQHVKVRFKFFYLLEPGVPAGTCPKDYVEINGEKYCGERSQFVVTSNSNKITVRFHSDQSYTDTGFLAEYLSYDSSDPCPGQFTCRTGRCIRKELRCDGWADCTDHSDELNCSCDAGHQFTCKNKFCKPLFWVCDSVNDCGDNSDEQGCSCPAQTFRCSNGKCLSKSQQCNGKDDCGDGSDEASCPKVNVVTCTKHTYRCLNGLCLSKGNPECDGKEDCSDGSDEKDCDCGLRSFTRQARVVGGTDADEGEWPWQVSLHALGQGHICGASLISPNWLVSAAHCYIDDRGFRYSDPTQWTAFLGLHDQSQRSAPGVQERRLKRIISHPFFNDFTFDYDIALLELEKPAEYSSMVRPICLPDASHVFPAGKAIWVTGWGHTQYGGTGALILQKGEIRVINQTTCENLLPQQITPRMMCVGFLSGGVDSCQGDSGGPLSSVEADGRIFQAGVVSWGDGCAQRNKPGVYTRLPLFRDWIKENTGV
Experiment: Inhibition of human matriptase using Boc-Gln-Ala-Arg-AMC as substrate after 20 mins by fluorimetric analysis
Settings: not given
In the case of N=C(N)c1ccc(OCc2ccc(COc3ccc(C(=N)N)cc3)cc2)cc1, the pKi was 6.09. In the case of N=C(N)c1ccc(NC(=O)C(=O)Nc2ccc(C(=N)N)cc2)cc1, the pKi was 6.31. Compound N=C(N)c1ccc(N2CCN(c3ccc(C(=N)N)cc3)CC2)cc1 has a pKi of 6.14. For N=C(N)c1ccc(OCc2ccccc2COc2ccc(C(=N)N)cc2)cc1, the pKi was 5.64. Work on N=C(N)c1ccc(NCCCCCCCNc2ccc(C(=N)N)cc2)cc1 yielded a pKi of 6.25. For N=C(N)c1ccc(NCCCCCCCCNc2ccc(C(=N)N)cc2)cc1, the pKi was 6.28. N=C(N)c1ccc(N2CCCN(c3ccc(C(=N)N)cc3)CC2)cc1 gave a pKi of 6.40.

Target: not listed separately
Experiment: Inhibition of bovine trypsin after 15 to 30 mins
Parameters: species or system Bos taurus
Settings: not given
With N=C(N)c1ccc(OCc2ccc(COc3ccc(C(=N)N)cc3)cc2)cc1 the pKi was 5.89.

Target: Trypsin (Homo sapiens, UniProt P07477+P07478+P35030)
Experiment: Inhibition of human trypsin using Boc-Gln-Ala-Arg-AMC as substrate after 20 mins by fluorimetric analysis
Format: protein assay
Settings: not given
For N=C(N)c1ccc(OCc2ccc(COc3ccc(C(=N)N)cc3)cc2)cc1, the Ki was 0.316 µM. In the case of N=C(N)c1ccc(NC(=O)C(=O)Nc2ccc(C(=N)N)cc2)cc1, the Ki was 1.42 µM. Work on N=C(N)c1ccc(N2CCN(c3ccc(C(=N)N)cc3)CC2)cc1 yielded a Ki of 0.513 µM. N=C(N)c1ccc(OCc2ccccc2COc2ccc(C(=N)N)cc2)cc1 showed a Ki of 0.221 µM. N=C(N)c1ccc(NCCCCCCCNc2ccc(C(=N)N)cc2)cc1 gave a Ki of 0.244 µM. N=C(N)c1ccc(NCCCCCCCCNc2ccc(C(=N)N)cc2)cc1 showed a Ki of 0.192 µM. Compound N=C(N)c1ccc(N2CCCN(c3ccc(C(=N)N)cc3)CC2)cc1 has a Ki of 1.9 µM.

Target: Coagulation factor X (Bos taurus, UniProt P00743)
Sequence (P00743 41-180 limits assumed): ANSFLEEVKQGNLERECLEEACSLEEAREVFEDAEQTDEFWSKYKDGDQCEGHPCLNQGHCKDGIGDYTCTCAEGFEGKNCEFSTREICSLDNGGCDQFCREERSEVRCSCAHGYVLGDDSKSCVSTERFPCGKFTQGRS
Sequence (P00743 234-492 limits assumed): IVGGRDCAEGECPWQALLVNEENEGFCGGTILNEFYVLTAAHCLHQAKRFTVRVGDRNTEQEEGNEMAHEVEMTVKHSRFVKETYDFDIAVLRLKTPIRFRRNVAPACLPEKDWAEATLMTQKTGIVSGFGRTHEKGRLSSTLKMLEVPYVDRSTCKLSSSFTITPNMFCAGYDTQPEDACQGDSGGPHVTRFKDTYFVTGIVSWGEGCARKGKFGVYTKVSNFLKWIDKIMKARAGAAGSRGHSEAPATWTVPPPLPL
Experiment: Inhibition of bovine factor 10a using Boc-Ile-Glu-Gly-Arg-AMC as substrate after 20 mins by fluorimetric analysis
Settings: not given
Compound N=C(N)c1ccc(OCc2ccc(COc3ccc(C(=N)N)cc3)cc2)cc1 has a pKi of 6.49. For N=C(N)c1ccc(NC(=O)C(=O)Nc2ccc(C(=N)N)cc2)cc1, the pKi was 4.28. N=C(N)c1ccc(N2CCN(c3ccc(C(=N)N)cc3)CC2)cc1 gave a pKi of 4.70. Work on N=C(N)c1ccc(OCc2ccccc2COc2ccc(C(=N)N)cc2)cc1 yielded a pKi of 4.86. N=C(N)c1ccc(NCCCCCCCNc2ccc(C(=N)N)cc2)cc1 gave a pKi of 6.41. N=C(N)c1ccc(NCCCCCCCCNc2ccc(C(=N)N)cc2)cc1 gave a pKi of 5.89. With N=C(N)c1ccc(N2CCCN(c3ccc(C(=N)N)cc3)CC2)cc1 the pKi was 5.11.

Target: T2, Transmembrane protease serine 6 (Homo sapiens) (UniProt Q8IU80)
T2 sequence (whole entry): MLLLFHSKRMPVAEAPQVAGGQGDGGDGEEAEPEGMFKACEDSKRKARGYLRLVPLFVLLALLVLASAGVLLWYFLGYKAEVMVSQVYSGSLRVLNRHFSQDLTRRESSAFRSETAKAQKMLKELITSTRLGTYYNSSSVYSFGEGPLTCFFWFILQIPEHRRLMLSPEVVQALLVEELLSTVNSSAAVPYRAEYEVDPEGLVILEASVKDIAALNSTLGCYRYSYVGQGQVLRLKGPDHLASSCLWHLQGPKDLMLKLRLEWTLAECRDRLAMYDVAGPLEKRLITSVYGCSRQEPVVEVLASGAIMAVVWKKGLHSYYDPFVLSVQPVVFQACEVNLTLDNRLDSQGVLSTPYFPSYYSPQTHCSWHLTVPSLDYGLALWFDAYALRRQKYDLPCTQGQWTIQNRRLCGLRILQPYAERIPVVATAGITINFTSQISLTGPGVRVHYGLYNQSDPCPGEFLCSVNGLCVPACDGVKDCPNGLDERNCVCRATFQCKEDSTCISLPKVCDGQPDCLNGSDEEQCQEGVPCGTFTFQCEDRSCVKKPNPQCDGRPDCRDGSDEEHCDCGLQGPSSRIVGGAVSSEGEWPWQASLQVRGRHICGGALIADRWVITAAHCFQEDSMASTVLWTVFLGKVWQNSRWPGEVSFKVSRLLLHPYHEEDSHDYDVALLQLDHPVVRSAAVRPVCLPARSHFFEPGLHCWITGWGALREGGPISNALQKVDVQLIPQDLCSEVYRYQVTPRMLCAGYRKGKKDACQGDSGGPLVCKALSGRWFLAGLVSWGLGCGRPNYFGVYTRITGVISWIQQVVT
Experiment: Inhibition of human matriptase-2 transfected in HEK cells assessed as residual activity at 5 uM using Boc-Gln-Ala-Arg-AMC as substrate after 20 mins by fluorimetric analysis
Format: cell-based
Settings: HEK293
N=C(N)c1ccc(NC(=O)c2ccc(C(=O)Nc3ccc(C(=N)N)cc3)cc2)cc1 gave an Activity of 93%.

Target: Prothrombin (Homo sapiens, UniProt P00734)
Experiment: Inhibition of human thrombin using Cbz-Gly-Gly-Arg-AMC as substrate after 20 mins by fluorimetric analysis
Settings: not given
N=C(N)c1ccc(OCc2ccc(COc3ccc(C(=N)N)cc3)cc2)cc1 gave a pKi of 5.94. In the case of N=C(N)c1ccc(NC(=O)C(=O)Nc2ccc(C(=N)N)cc2)cc1, the pKi was 4.80. In the case of N=C(N)c1ccc(N2CCN(c3ccc(C(=N)N)cc3)CC2)cc1, the pKi was 5.00. For N=C(N)c1ccc(OCc2ccccc2COc2ccc(C(=N)N)cc2)cc1, the pKi was 6.55. N=C(N)c1ccc(NCCCCCCCNc2ccc(C(=N)N)cc2)cc1 showed a pKi of 6.30. Work on N=C(N)c1ccc(NCCCCCCCCNc2ccc(C(=N)N)cc2)cc1 yielded a pKi of 6.50. N=C(N)c1ccc(N2CCCN(c3ccc(C(=N)N)cc3)CC2)cc1 showed a pKi of 5.28.

Target: T3, Transmembrane protease serine 6 (Homo sapiens, UniProt Q8IU80)
T3 sequence (Q8IU80 whole entry): T2 sequence (whole entry)
Experiment: Inhibition of human matriptase-2 transfected in HEK cells using Boc-Gln-Ala-Arg-AMC as substrate after 20 mins by fluorimetric analysis
Format: cell-based, HEK293
Settings: not given
Compound N=C(N)c1ccc(OCc2ccc(COc3ccc(C(=N)N)cc3)cc2)cc1 has a pKi of 5.24. With N=C(N)c1ccc(NC(=O)C(=O)Nc2ccc(C(=N)N)cc2)cc1 the pKi was 5.21. N=C(N)c1ccc(N2CCN(c3ccc(C(=N)N)cc3)CC2)cc1 gave a pKi of 5.94. Compound N=C(N)c1ccc(OCc2ccccc2COc2ccc(C(=N)N)cc2)cc1 has a pKi of 5.28. In the case of N=C(N)c1ccc(NCCCCCCCNc2ccc(C(=N)N)cc2)cc1, the pKi was 5.43. For N=C(N)c1ccc(NCCCCCCCCNc2ccc(C(=N)N)cc2)cc1, the pKi was 5.79. Compound N=C(N)c1ccc(N2CCCN(c3ccc(C(=N)N)cc3)CC2)cc1 has a pKi of 5.36.

Target: T2, Transmembrane protease serine 6 (Homo sapiens)
Experiment: Inhibition of human matriptase-2 transfected in HEK cells assessed as residual activity at 40 uM using Boc-Gln-Ala-Arg-AMC as substrate after 20 mins by fluorimetric analysis
Format: cell-based
Settings: HEK293
For N=C(N)c1ccc(NC(=O)c2cccc(C(=O)Nc3ccc(C(=N)N)cc3)c2)cc1, the Activity was 32%. Work on N=C(N)c1ccc(OCc2ccc(COc3ccc(C(=N)N)cc3)cc2)cc1 yielded an Activity of 16%. For N=C(N)c1ccc(NCCCCCCNc2ccc(C(=N)N)cc2)cc1, the Activity was 21%. Work on N=C(N)c1ccc(NC(=O)CCCCCCC(=O)Nc2ccc(C(=N)N)cc2)cc1 yielded an Activity of 62%. With N=C(N)c1ccc(NCCCCNc2ccc(C(=N)N)cc2)cc1 the Activity was 27%. With N=C(N)c1ccc(NC(=O)CCCCCCCCC(=O)Nc2ccc(C(=N)N)cc2)cc1 the Activity was 33%. Compound N=C(NC1CC1)c1ccc(N2CCCN(c3ccc(C(=N)NC4CC4)cc3)CC2)cc1 has an Activity of 45%. Compound N=C(N)c1ccc(NC(=O)C(=O)Nc2ccc(C(=N)N)cc2)cc1 has an Activity of 17%. With N=C(N)c1ccc(NCCCNc2ccc(C(=N)N)cc2)cc1 the Activity was 55%. With N=C(N)c1ccc(NC(=O)CCC(=O)Nc2ccc(C(=N)N)cc2)cc1 the Activity was 40%. For N=C(N)c1ccc(COc2ccccc2OCc2ccc(C(=N)N)cc2)cc1, the Activity was 46%. In the case of N=C(N)c1ccc(NCCNc2ccc(C(=N)N)cc2)cc1, the Activity was 23%. N=C(N)c1ccc(N2CCN(c3ccc(C(=N)N)cc3)CC2)cc1 showed an Activity of 5.3%. Work on CN(CCNc1ccc(C(=N)N)cc1)c1ccc(C(=N)N)cc1 yielded an Activity of 21%. Work on N=C(N)c1ccc(NC(=O)CCCCCC(=O)Nc2ccc(C(=N)N)cc2)cc1 yielded an Activity of 63%. With N=C(N)c1ccc(NC(=O)CCCCC(=O)Nc2cccc(C(=N)N)c2)cc1 the Activity was 78%. With N=C(N)c1ccc(OCc2ccccc2COc2ccc(C(=N)N)cc2)cc1 the Activity was 19%. With CN(CCCN(C)c1ccc(C(=N)N)cc1)c1ccc(C(=N)N)cc1 the Activity was 23%. With N=C(N)c1ccc(NC(=O)CCCCCCCCCCC(=O)Nc2ccc(C(=N)N)cc2)cc1 the Activity was 49%. In the case of N=C(N)c1ccc(NC(=O)CCCCCCCC(=O)Nc2ccc(C(=N)N)cc2)cc1, the Activity was 49%. In the case of N=C(N)c1ccc(OCc2cccc(COc3ccc(C(=N)N)cc3)c2)cc1, the Activity was 17%. For N=C(N)c1ccc(NC(=O)CCCCC(=O)Nc2ccc(C(=N)N)cc2)cc1, the Activity was 57%. In the case of N=C(N)c1ccc(NC(=O)c2ccc(C(=O)Nc3ccc(C(=N)N)cc3)cc2)cc1, the Activity was greater than 50%. In the case of N=C(N)c1ccc(NCCCCCCCNc2ccc(C(=N)N)cc2)cc1, the Activity was 16%. With N=C(N)c1ccc(NC(=O)CCCC(=O)Nc2ccc(C(=N)N)cc2)cc1 the Activity was 68%. Compound N=C(N)c1ccc(NCCCCCCCCNc2ccc(C(=N)N)cc2)cc1 has an Activity of 8.6%. N=C(N)c1ccc(N2CCCN(c3ccc(C(=N)N)cc3)CC2)cc1 showed an Activity of 15%.
